Measured values: patent US10201610B2, “Interference peptides and use thereof” (The University of Western Australia, priority 2014, dated 2019)
Ends that are not written are not given here.

What was measured:
[1] = system: mRNA levels of COLA1, COLA2, S1004A and DDIT3 (CHOP); test: Real time PCR of downstream effectors of EPRS in SUM149PT cells; type: cell-based, human
From the text: FIG. 6 EN1-Ipeps binds the endogenous Glutamyl-Prolyl tRNA synthetase (EPRS) target and regulates downstream EPRS effectors in breast cancer cells. (a) EN1-iPep624 (SEQ ID NO: 5) captures and binds EPRS from total extracts of SUM149-PT cells. Affinity-capture immunoprecipitation and western blot detection of EPRS using biotinylated iPeps as bait, and total extracts of SUM149-PT cells. Same input loading of extract is shown in the SDS-PAGE gel on the left. […] The immunoprecipitations were done at least three times and averages and standard errors between experiments are indicated (p<0.01*, p<0.001**). (b) Full length EN1 binds the endogenous EPRS in MDA-MB-231 and SUM149PT cells. Total extracts of MDA-MB-231 and SUM149PT expressing either a full length EN1 cDNA engineered with a N-terminal FLAG tag or an empty-vector control were processed by immunoprecipitation with an anti-FLAG antibody. Immunoprecipitated complexes were blotted with an EPRS-specific antibody to detect endogenous EPRS. The same amount of loaded extracts (INPUT) is shown with anti-tubulin as endogenous control. The enrichment of the immunoprecipitated products was determined by quantification of the bands by densitometry as described above, and data was normalized to iPep624ΔHEX (SEQ ID NO: 18) control. […] Cell viability was determined by a Cell Titer Glo assay and IC50 concentrations determined as described in FIG. 5. […]

[2] = target: T1, Glutamyl-Prolyl tRNA synthetase (EPRS) (Homo sapiens, UniProt P07814); test: Affinity capture immunoprecipitation with biotinylated iPeps, EPRS detection; type: binding; conditions: biotinylated iPep as bait, versus control peptide iPep624ΔHEX
T1 construct: endogenous in cells; host or cells: SUM149PT total protein extract
T1 sequence (P07814 whole entry): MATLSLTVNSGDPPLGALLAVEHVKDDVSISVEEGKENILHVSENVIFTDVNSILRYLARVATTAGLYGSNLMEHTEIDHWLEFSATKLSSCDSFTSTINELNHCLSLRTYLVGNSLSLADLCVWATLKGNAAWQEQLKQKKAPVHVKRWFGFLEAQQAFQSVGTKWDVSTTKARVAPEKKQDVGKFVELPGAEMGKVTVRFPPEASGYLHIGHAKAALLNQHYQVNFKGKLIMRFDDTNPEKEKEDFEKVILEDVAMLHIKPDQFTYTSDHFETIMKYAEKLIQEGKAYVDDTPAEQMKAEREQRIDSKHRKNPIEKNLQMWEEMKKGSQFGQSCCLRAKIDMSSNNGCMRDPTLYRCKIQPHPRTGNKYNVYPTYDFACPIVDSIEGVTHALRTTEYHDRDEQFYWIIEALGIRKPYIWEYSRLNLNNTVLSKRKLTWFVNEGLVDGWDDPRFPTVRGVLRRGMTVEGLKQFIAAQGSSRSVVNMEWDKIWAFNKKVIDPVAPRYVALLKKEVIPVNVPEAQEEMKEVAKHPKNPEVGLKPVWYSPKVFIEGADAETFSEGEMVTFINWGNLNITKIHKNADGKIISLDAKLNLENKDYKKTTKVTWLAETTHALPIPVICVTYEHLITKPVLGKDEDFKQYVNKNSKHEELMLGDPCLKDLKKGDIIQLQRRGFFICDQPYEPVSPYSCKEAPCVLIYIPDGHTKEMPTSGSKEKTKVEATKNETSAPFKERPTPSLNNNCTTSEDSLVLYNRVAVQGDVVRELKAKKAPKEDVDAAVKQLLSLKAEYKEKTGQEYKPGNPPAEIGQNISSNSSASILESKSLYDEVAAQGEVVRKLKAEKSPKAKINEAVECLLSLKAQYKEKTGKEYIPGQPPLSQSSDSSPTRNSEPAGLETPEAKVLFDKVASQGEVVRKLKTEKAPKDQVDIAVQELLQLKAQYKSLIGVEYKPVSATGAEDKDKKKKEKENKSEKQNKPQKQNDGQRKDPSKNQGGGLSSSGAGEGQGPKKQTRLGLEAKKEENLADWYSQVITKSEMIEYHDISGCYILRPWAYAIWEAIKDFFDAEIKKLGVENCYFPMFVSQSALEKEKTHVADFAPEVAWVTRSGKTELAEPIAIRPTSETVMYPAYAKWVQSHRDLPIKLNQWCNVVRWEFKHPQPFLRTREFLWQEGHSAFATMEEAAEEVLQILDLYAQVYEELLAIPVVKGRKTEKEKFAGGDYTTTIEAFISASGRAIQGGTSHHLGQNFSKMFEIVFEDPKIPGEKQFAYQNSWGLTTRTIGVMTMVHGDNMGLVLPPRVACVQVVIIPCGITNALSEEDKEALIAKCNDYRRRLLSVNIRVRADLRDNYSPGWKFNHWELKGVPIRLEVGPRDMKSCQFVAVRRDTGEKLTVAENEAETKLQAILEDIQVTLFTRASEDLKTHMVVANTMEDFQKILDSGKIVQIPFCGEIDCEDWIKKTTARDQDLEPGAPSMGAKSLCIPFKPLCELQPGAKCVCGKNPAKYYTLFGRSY
From the text: To investigate the binding partners of the iPeps in cancer cells, the inventors carried out affinity capture immunoprecipitation experiments using the biotinylated active iPep624 as bait, and the iPep624ΔHEX as negative control. They used total protein extracts from SUM149PT cells to capture endogenous proteins able to bind these peptides in vitro. Elutes were loaded in a 1D-SDS PAGE gel to visualize the enrichment of individual proteins. […] In addition, overexpression of EN1 cDNA into two different breast cell lines confirmed the interaction of the full length EN1 with the endogenous EPRS inside the cells (FIG. 6c). […]
The iPep624 and iPep624ΔHEX were coupled to a C-terminal biotin and immobilized in streptavidin-coated beads. […] Detection was performed with ECL Detection System (GE Healthcare) and quantitated using Image J v1.46 (ImageJ, NCBI).
Proteins were eluted from the streptavidin beads coated with biotinylated iPep624 or iPep624ΔHEX, resuspended with SDS PAGE sample buffer and applied to SDS-PAGE (10% acrylamide; FIG. 10). Gels were stained with Coomassie brilliant blue and select bands unique to the EN1 immunoprecipitates were excised, digested with trypsin, and the peptides were extracted and analyzed using a MALDI-TOF/TOF mass spectrometer (AB Sciex 4800 Plus). […]

binding of EPRS from SUM149PT extracts [2]: preferential binding interaction
Sequence: KKKRKVTDSQQPLVWPAWVYCTRYSDRPS [iPep624]
DDIT3 mRNA in EN1-overexpressing cells ([1]; 15 μM active iPep over control): significantly up-regulated
up-regulation of COLA1, COLA2 and S1004A mRNA in EN1-overexpressing cells ([1]; 15 μM active peptide): significantly reverted
